Columns and labels:
Experiment in all cases: relative viability (nuclei count vs DMSO), 5 days (fraction); higher = more cells survive
Elesclomol + Palbociclib = compound: CN(NC(=O)CC(=O)NN(C)C(=S)c1ccccc1)C(=S)c1ccccc1 [Elesclomol] + CC(=O)c1c(C)c2cnc(Nc3ccc(N4CCNCC4)cn3)nc2n(C2CCCC2)c1=O [Palbociclib] (partner 0.5 µM)
Method in brief: (§1)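 Relative viability is defined as nuclei in treated wells over nuclei in vehicle wells. Duplicate plates were run and medians reported. Lung cancer cell lines in 1536-well plates were dosed by pin tool one day after seeding, with one drug or with a fixed anchor-drug dose plus five library-drug doses (not always all listed) in √10 steps, and nuclei were counted after 5 days.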

Elesclomol + Lapatinib = compound: CN(NC(=O)CC(=O)NN(C)C(=S)c1ccccc1)C(=S)c1ccccc1 [Elesclomol] + CS(=O)(=O)CCNCc1ccc(-c2ccc3ncnc(Nc4ccc(OCc5cccc(F)c5)c(Cl)c4)c3c2)o1 [Lapatinib] (partner 2 µM)
Method in brief: as §1

Elesclomol + Phenformin = compound: CN(NC(=O)CC(=O)NN(C)C(=S)c1ccccc1)C(=S)c1ccccc1 [Elesclomol] + N=C(N)NC(=N)NCCc1ccccc1 [Phenformin] (partner 250 µM)
Method in brief: as §1

Elesclomol + Pemetrexed = compound: CN(NC(=O)CC(=O)NN(C)C(=S)c1ccccc1)C(=S)c1ccccc1 [Elesclomol] + Nc1nc2[nH]cc(CCc3ccc(C(=O)N[C@@H](CCC(=O)O)C(=O)O)cc3)c2c(=O)[nH]1 [Pemetrexed] (partner 0.2 µM)
Method in brief: as §1

Elesclomol + Olaparib = compound: CN(NC(=O)CC(=O)NN(C)C(=S)c1ccccc1)C(=S)c1ccccc1 [Elesclomol] + O=C(c1cc(Cc2n[nH]c(=O)c3ccccc23)ccc1F)N1CCN(C(=O)C2CC2)CC1 [Olaparib] (partner 8 µM)
Method in brief: as §1

Cell Line | relative viability (Elesclomol + Palbociclib; first compound 0.003162 µM) | relative viability (Elesclomol + Palbociclib; first compound 0.01 µM) | relative viability (Elesclomol + Palbociclib; first compound 0.03162 µM) | relative viability (Elesclomol + Palbociclib; first compound 0.1 µM) | relative viability (Elesclomol + Lapatinib; first compound 0.003162 µM) | relative viability (Elesclomol + Lapatinib; first compound 0.03162 µM) | relative viability (Elesclomol + Lapatinib; first compound 0.1 µM) | relative viability (Elesclomol + Phenformin; first compound 0.003162 µM) | relative viability (Elesclomol + Phenformin; first compound 0.01 µM) | relative viability (Elesclomol + Phenformin; first compound 0.03162 µM) | relative viability (Elesclomol + Phenformin; first compound 0.1 µM) | relative viability (Elesclomol + Pemetrexed; first compound 0.003162 µM) | relative viability (Elesclomol + Pemetrexed; first compound 0.01 µM) | relative viability (Elesclomol + Pemetrexed; first compound 0.03162 µM) | relative viability (Elesclomol + Pemetrexed; first compound 0.1 µM) | relative viability (Elesclomol + Olaparib; first compound 0.003162 µM) | relative viability (Elesclomol + Olaparib; first compound 0.01 µM) | relative viability (Elesclomol + Olaparib; first compound 0.03162 µM) | relative viability (Elesclomol + Olaparib; first compound 0.1 µM) | relative viability (Elesclomol + Lapatinib; first compound 0.01 µM)
NCI-H23 | 0.531 | 0.413 | 0.269 | 0.127 | 1.12 | 0.799 | 0.139 | 0.822 | 0.671 | 0.77 | 0.506 | 0.787 | 0.568 | 0.503 | 0.12 | 0.3 | 0.267 | 0.187 | 0.0908 | –
NCI-H322M | 0.387 | 0.381 | 0.331 | 0.246 | 0.563 | 0.624 | 0.399 | 0.769 | 0.32 | 0.47 | 0.0999 | 0.515 | 0.368 | 0.293 | 0.0948 | 0.665 | 0.572 | 0.388 | 0.208 | –
NCI-H358 | 0.132 | 0.105 | 0.0798 | 0.0844 | 0.272 | 0.209 | 0.184 | 0.305 | 0.158 | 0.148 | 0.166 | 0.159 | 0.123 | 0.142 | 0.133 | 0.758 | 0.346 | 0.107 | 0.138 | 0.244
NCI-H460 | 0.185 | 0.138 | 0.0179 | 0.0102 | 0.755 | 0.0103 | 0.0101 | 0.439 | 0.0498 | 0.0181 | 0.0123 | 0.0667 | 0.0599 | 0.0708 | 0.0235 | 0.421 | 0.251 | 0.194 | 0.0303 | 0.229
NCI-H520 | 0.254 | 0.213 | 0.183 | 0.0937 | 0.91 | 0.373 | 0.0913 | 0.555 | 0.535 | 0.61 | 0.105 | 0.724 | 0.779 | 0.335 | 0.109 | 0.333 | 0.32 | 0.152 | 0.0887 | 0.666
NCI-H647 | 0.309 | 0.257 | 0.128 | 0.0311 | 1.08 | 0.267 | 0.0231 | 0.546 | 0.234 | 0.104 | 0.0401 | 0.172 | 0.158 | 0.139 | 0.0481 | 0.547 | 0.357 | 0.128 | 0.0704 | 0.765
NCI-H650 | 0.328 | 0.292 | 0.174 | 0.133 | 0.805 | 0.195 | 0.289 | 0.468 | 0.345 | 0.315 | 0.361 | 0.884 | 0.728 | 0.449 | 0.191 | 0.426 | 0.319 | 0.204 | 0.241 | 0.373
NCI-H661 | 0.408 | 0.337 | 0.235 | 0.181 | 0.368 | 0.236 | 0.186 | 0.272 | 0.305 | 0.25 | 0.193 | 0.884 | 0.596 | 0.38 | 0.331 | 0.702 | 0.464 | 0.271 | 0.186 | 0.205

— the supplement of paper PMC10307832
